Assay results as given in ChEMBL document CHEMBL1157276, “Halogenated monoterpenes from plocamium costatum and their biological activity1” (1999).

Experiments:
Format in all cases: functional
Amphibalanus amphitrite [1] = assay: Antifouling activity against cypris larvae at 10 ug/cm'2
Amphibalanus amphitrite [2] = assay: Antifouling activity against cypris larvae at 1 ug/cm'2
Amphibalanus amphitrite [3] = assay: Antifouling activity against cypris larvae at 0.1 ug/cm'2
Amphibalanus amphitrite [4] = assay: Antifouling activity against cypris larvae at 0.01 ug/cm'2

Row | Structure (SMILES) | Activity (Amphibalanus amphitrite [1]) [%] | Activity (Amphibalanus amphitrite [2]) [%] | Activity (Amphibalanus amphitrite [3]) [%] | Activity (Amphibalanus amphitrite [4]) [%]
1 | C[C@](Cl)(/C=C/[C@H](Cl)[C@](C)(Cl)/C=C/Br)C(Br)Br | 2.2 | 37 | 54 | 42
2 | C=CC(C)(O)CCCC(C)CCCC(C)CCCC(C)C (configuration not stated) | 13 | 23 | 54 | 43
3 | C=C(C)C(Cl)C/C=C(\C)C(Cl)CBr (configuration not stated) | 58 | 53 | 52 | 57
